How the values were obtained:
TRKB = target: T1, TRKB (Homo sapiens, UniProt Q16620); test: In vitro biochemical HTRF KinEASE kinase inhibition, TRKB; details: wild-type kinase, final ATP 2.56 μmol/L
T1 construct: purchased Carna Biosciences 08-187
Procedure: The material and the method are as follows: wild-type kinases such as TRKA, TRKB and TRKC, and mutant kinases such as TRKA-G595R, TRKA-G667C, TRKA-F589L, TRKC-G623R and TRKC-G696A, and are derived from Carna Biosciences 08-186, 08-187, 08-197; HTRF KinEASE TKkit (Cisbio 62TKO PEC); 384 well plates (Greiner corporation); ATP (Life technologies PV 3227), MgCl2 (sigma); PHERAstar FS Multifunctional microplate reader (BMG Co.); low speed centrifuge (StaiteXiangyi corporation); incubator (Binder company).
Preparing a compound working solution: the dispensed compounds were removed from the freezer prior to testing and diluted to 100× concentration with pure DMSO; then the compound was diluted to the desired concentration of 4× with deionized water;
Preparation of 1.33× enzyme buffer (enzyme buffer): 5× enzyme buffer (from HTRF kit) was diluted to 1.33× with deionized water and the corresponding ingredients were added at a final concentration of 1.33×: 1.33 mmol/L Dithiothreitol (DTT), 1.33 mmol/L MnCl2, 6.65 mmol/L MgCl2 and 39.9 nmol/L SEB;
Preparation of a kinase working solution: TRKA, TRKB and TRKC were diluted with 1.33× enzyme buffer to the required concentrations of 2× of 0.404 ng/μL, 0.304 ng/μL and 0.236 ng/μL, respectively;
Preparing a substrate working solution: a mixture of TK Substrate Blr diluted to the desired final concentration of 4× (from HTRF kit) and ATP (10 mM) with 1.33× enzyme buffer; the final ATP concentrations for TRKA, TRKB, and TRKC were: 3.727 μmol/L, 2.56 μmol/L and 2.526 μmol/L. The TK Substrate-biotin (from HTRF KinEASE TKkit) final concentrations were all: 0.2 μmol/L.
Preparing a detection working solution: 16.67 μmol/L of Streptavidin-XL665 (Streptavidin-XL 665) were diluted to the desired final concentration of 4× with HTRF test buffer and then mixed with an equal volume of Antibody-europium Cryptate (Antibody-Cryptate) (both from HTRF kits).
An enzyme reaction step: add 4 μL of kinase working solution to each well of a low volume 384 microwell plate along with 4 μL of 1.33× enzyme buffer as a Negative control (Negative); add 2 μl of compound working solution to the wells, while adding 2 μl of […] aqueous solution as a zero compound concentration control (i.e., Positive control, Positive); incubating at 25° C. for 5 min; add 2 μL of substrate working solution to the wells to start the enzymatic reaction, shake the reaction for 30 min at 37° C.
HTRF reagent detection step: adding […] to the hole to terminate the reaction; reacting for 1 h at 25° C.;
Reading of HTRF signal: the PHERAstar FS reading is adopted to detect signals, and the corresponding setting of the instrument is as follows:
For the raw data read out per well, the ratio=665 nm/620 nm;
Calculation of inhibition rate:
Calculation of IC50 values: with the logarithm of the compound concentration as abscissa and the inhibition as ordinate, a non-linear curve was fitted in GraphPad Prism 5: log (inhibitor) vs. response—Variable slope, and calculating the concentration of the compound to be detected, namely IC50, when the enzyme activity inhibition rate is 50%.

[1] = Drug metabolism study in rats, oral administration; details: rat
[2] = Drug metabolism study in rats, intravenous administration; details: rat, plasma, iv, 1 mg/kg
TRKA = target: T2, TRKA (Homo sapiens, UniProt P04629); test: In vitro biochemical HTRF KinEASE kinase inhibition, TRKA; details: wild-type kinase, final ATP 3.727 μmol/L; read-out: TRKA IC50
T2 construct: purchased Carna Biosciences 08-186
T2 sequence (P04629 33-796): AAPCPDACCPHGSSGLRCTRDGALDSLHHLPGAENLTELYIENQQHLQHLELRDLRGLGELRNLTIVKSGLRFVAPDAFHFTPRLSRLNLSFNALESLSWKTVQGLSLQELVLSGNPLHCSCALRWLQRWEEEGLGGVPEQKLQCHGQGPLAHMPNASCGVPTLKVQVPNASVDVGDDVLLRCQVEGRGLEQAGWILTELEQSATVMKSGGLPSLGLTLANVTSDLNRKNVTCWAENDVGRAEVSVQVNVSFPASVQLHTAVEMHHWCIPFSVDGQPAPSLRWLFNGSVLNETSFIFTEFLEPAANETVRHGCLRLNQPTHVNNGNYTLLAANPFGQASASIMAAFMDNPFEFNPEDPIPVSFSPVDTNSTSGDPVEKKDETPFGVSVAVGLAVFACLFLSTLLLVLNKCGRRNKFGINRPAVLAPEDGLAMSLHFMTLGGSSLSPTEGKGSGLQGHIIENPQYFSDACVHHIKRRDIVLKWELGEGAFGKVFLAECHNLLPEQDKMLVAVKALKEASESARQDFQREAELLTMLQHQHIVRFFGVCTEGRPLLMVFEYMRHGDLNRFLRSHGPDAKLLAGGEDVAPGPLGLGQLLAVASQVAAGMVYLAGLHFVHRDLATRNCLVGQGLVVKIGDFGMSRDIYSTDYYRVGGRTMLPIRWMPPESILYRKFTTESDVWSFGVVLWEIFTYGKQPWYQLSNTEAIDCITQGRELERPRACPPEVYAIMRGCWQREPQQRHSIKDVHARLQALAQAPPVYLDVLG

TRKC = target: T3, TRKC (Homo sapiens, UniProt Q16288); test: In vitro biochemical HTRF KinEASE kinase inhibition, TRKC; details: wild-type kinase, final ATP 2.526 μmol/L
T3 construct: purchased Carna Biosciences 08-197
T3 sequence (Q16288 32-825 isoform Q16288-3 limits assumed): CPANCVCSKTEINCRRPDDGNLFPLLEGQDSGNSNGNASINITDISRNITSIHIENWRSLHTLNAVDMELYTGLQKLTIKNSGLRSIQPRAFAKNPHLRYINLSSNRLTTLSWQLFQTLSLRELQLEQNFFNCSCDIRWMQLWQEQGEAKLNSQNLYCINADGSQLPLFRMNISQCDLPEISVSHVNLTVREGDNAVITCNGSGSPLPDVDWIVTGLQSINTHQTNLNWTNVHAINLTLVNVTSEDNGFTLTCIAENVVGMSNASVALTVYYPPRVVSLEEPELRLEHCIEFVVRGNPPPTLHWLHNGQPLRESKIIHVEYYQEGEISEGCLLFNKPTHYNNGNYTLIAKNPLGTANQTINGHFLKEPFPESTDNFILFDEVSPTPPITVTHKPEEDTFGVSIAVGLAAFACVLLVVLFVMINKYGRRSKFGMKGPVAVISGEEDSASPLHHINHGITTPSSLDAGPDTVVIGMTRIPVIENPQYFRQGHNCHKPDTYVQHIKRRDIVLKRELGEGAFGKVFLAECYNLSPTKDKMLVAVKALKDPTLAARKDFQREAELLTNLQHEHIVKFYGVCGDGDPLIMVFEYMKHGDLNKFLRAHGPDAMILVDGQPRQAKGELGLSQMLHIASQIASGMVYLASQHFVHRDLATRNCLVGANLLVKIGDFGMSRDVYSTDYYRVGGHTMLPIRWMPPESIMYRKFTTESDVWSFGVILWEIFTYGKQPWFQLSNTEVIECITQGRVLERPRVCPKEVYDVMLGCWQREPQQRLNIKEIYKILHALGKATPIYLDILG

T1 sequence (Q16620 32-822): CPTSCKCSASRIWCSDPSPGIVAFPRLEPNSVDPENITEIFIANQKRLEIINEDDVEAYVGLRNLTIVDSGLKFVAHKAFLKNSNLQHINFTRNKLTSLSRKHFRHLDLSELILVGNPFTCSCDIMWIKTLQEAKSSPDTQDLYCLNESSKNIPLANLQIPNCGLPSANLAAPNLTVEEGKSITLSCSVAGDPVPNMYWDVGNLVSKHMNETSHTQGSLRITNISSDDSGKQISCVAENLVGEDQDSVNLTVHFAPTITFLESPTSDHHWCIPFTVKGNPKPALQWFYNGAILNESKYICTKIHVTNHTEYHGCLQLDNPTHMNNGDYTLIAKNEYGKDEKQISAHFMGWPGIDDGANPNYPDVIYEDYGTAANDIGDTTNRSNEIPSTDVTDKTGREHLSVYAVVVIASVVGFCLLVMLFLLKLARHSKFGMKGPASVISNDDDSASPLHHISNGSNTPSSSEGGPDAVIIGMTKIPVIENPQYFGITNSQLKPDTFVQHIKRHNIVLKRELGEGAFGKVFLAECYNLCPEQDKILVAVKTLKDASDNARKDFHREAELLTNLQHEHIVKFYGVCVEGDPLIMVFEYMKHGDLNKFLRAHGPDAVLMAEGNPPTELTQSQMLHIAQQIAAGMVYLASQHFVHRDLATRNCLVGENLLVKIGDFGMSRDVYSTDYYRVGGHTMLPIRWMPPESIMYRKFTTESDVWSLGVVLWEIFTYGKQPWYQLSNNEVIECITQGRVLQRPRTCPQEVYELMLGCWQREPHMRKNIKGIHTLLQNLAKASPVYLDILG

| SMILES | IC50 (TRKB) [nM] | IC50 (TRKA) [nM] | IC50 (TRKC) [nM] | other results |
| --- | --- | --- | --- | --- |
| C[C@@H](Nc1ccn2ncc(-c3cnn(C)c3)c2n1)c1cc(F)ccc1OCC(F)F [Compound 2, (R)-N-(1-(2-(2,2-difluoroethoxy)-5-fluorophenyl)ethyl)-3-(1-methyl-1H-pyrazol-4-yl) pyrazolo [1,5-a] pyrimidin-5-amine] | 2.8 |  |  | CL ([1]; oral 5 mg/kg): 168.7 mL/min/kg; Vz ([1]; oral 5 mg/kg): 37.61 L/kg; AUC(0-t) ([1]; plasma, po, 5 mg/kg): 533 ng·h/mL; Cmax ([1]; plasma, po, 5 mg/kg): 150 ng/mL; MRT last ([1]; plasma, po, 5 mg/kg): 2.62 h; Tmax ([1]; plasma, po, 5 mg/kg): 0.67 h; bioavailability ([1]; plasma, po, 5 mg/kg): 30.2%; half-life ([1]; plasma, po, 5 mg/kg): 2.85 h; AUC(0-t) [2]: 353 ng·h/mL; Cmax [2]: 298 ng/mL; MRT last [2]: 1.49 h; Vd [2]: 6.8 L/kg; clearance [2]: 46 mL/min/kg; half-life [2]: 1.71 h |
| CC(Nc1ccn2ncc(-c3cnn(C(F)F)c3)c2n1)c1cc(F)ccc1OCC(F)F (stereo not drawn) [Compound 3, N-(1-(2-(2,2-difluoroethoxy)-5-fluorophenyl)ethyl)-3-(1-(difluoromethyl)-1H-pyrazol-4-yl) pyrazolo [1,5-a] pyrimidin-5-amine] | 4.8 | 5.8 | 7.1 |  |
| CC(Nc1ccn2ncc(-c3cnn(C4CC4)c3)c2n1)c1cc(F)ccc1OCC(F)F (stereo not drawn) [Compound 4, 3-(1-cyclopropyl-1H-pyrazol-4-yl)-N-(1-(2-(2,2-difluoroethoxy)-5-fluorophenyl)ethyl) pyrazolo [1,5-a] pyrimidin-5-amine] | 15.9 | 12.2 | 24.9 |  |
| C[C@@H](Nc1ccn2ncc(-c3cnn(CC#N)c3)c2n1)c1cc(F)ccc1OCC(F)F [Compound 7] | 1.3 | 2.4 | 2.4 |  |
| CC(Nc1ccn2ncc(-c3cnn(C4CCCC4O)c3)c2n1)c1cc(F)ccc1OCC(F)F (stereo not drawn) [Compound 8, 2-(4-(5-((1-(2-(2,2-difluoroethoxy)-5-fluorophenyl)ethyl)amino)pyrazolo [1,5-a]pyrimidin-3-yl)-1H-pyrazol-1-yl) cyclopentan-1-ol] | 5.7 | 5.4 | 9.8 |  |
| C[C@@H](Nc1ccn2ncc(-c3cnn(C4CCCCO4)c3)c2n1)c1cc(F)ccc1OCC(F)F (stereo partly drawn) [Compound 10, N-((R)-1-(2-(2,2-difluoroethoxy)-5-fluorophenyl)ethyl)-3-(1-(tetrahydro-2H-pyran-2-yl)-1H-pyrazol-4-yl) pyrazolo [1,5-a] pyrimidin-5-amine] | 2.7 | 3.8 | 5.5 |  |
| CC(=O)n1cc(-c2cnn3ccc(N[C@H](C)c4cc(F)ccc4OCC(F)F)nc23)cn1 [Compound 12, (R)-1-(4-(5-((1-(2-(2,2-difluoroethoxy)-5-fluorophenyl)ethyl)amino)pyrazolo [1,5-a]pyrimidin-3-yl)-1H-pyrazol-1-yl) ethanone] | 3.5 | 3.3 | 4.7 |  |
| CC(Nc1ccn2ncc(-c3cn[nH]c3)c2n1)c1cc(F)cc(F)c1OCC(F)F (stereo not drawn) [Compound 14, N-(1-(2-(2,2-difluoroethoxy)-3,5-difluorophenyl)ethyl)-3-(1H-pyrazol-4-yl) pyrazolo [1,5-a] pyrimidin-5-amine] | 4.2 | 11.3 | 6.7 |  |
| CC(Nc1ccn2ncc(-c3cn[nH]c3)c2n1)c1ccccc1OCC(F)F (stereo not drawn) [Compound 16, N-(1-(2-(2,2-difluoroethoxy)phenyl)ethyl)-3-(1H-pyrazol-4-yl) pyrazolo [1,5-a] pyrimidin-5-amine] | 8.6 | 8.5 | 12.2 |  |
| CC(Nc1ccn2ncc(-c3cnn(C4CCCC4O)c3)c2n1)c1cc(F)ccc1O (stereo not drawn) [Compound a2-3, 4-fluoro-2-(1-((3-(1-(2-hydroxycyclopentyl)-1H-pyrazol-4-yl)pyrazolo [1,5-a]pyrimidin-5-yl)amino)ethyl) phenol] | 5.1 | 10.5 | 8.5 |  |
| C[C@@H](Nc1ccn2ncc(-c3cnn(C)c3)c2n1)c1cc(F)ccc1OCCF [Compound a10-17, (R)-N-(1-(5-fluoro-2-(2-fluoroethoxy)phenyl)ethyl)-3-(1-methyl-1H-pyrazol-4-yl) pyrazolo [1,5-a] pyrimidin-5-amine] | 1.5 | 2.3 | 15.1 |  |
| CC(Nc1ccn2ncc(-c3cnn(C)c3)c2n1)c1cc(F)ccc1OCC1CC1 (stereo not drawn) [Compound a26-38, N-(1-(2-(cyclopropylmethoxy)-5-fluorophenyl)ethyl)-3-(1-methyl-1H-pyrazol-4-yl) pyrazolo [1,5-a] pyrimidin-5-amine] | 6.7 | 11.5 | 9.9 |  |
| CC(Nc1ccn2ncc(-c3cnn(C)c3)c2n1)c1cc(F)ccc1OC1CCOC1 (stereo not drawn) [Compound a27-41, N-(1-(5-fluoro-2-((tetrahydrofuran-3-yl)oxy)phenyl)ethyl)-3-(1-methyl-1H-pyrazol-4-yl) pyrazolo [1,5-a] pyrimidin-5-amine] | 5.8 | 7.7 | 7.1 |  |
| CC(Nc1ccn2ncc(-c3cn[nH]c3)c2n1)c1cc(F)ccc1OCF (stereo not drawn) [Compound b3-6, N-(1-(5-fluoro-2-(fluoromethoxy)phenyl)ethyl)-3-(1H-pyrazol-4-yl) pyrazolo [1,5-a] pyrimidin-5-amine] | 13 | 18.1 | 15.5 |  |
| CC(Nc1ccn2ncc(-c3cn[nH]c3)c2n1)c1cc(F)ccc1OC(F)F (stereo not drawn) [Compound b4-7, N-(1-(2-(difluoromethoxy)-5-fluorophenyl)ethyl)-3-(1H-pyrazol-4-yl) pyrazolo [1,5-a] pyrimidin-5-amine] | 3.1 | 3.37 | 3.8 |  |
| CCOc1ccc(F)cc1C(C)Nc1ccn2ncc(-c3cn[nH]c3)c2n1 (stereo not drawn) [Compound b5-11, N-(1-(2-ethoxy-5-fluorophenyl)ethyl)-3-(1H-pyrazol-4-yl) pyrazolo [1,5-a]pyrimidin-5-amine] | 4.3 | 8.4 | 8.4 |  |
| CCCOc1ccc(F)cc1C(C)Nc1ccn2ncc(-c3cn[nH]c3)c2n1 (stereo not drawn) [Compound b9-33, N-(1-(5-fluoro-2-propoxyphenyl)ethyl)-3-(1H-pyrazol-4-yl) pyrazolo [1,5-a] pyrimidin-5-amine] | 5.5 | 6 | 12.2 |  |
| CC(Nc1ccn2ncc(-c3cn[nH]c3)c2n1)c1cc(F)ccc1OCCCF (stereo not drawn) [Compound b10-34, N-(1-(5-fluoro-2-(3-fluoropropoxy)phenyl)ethyl)-3-(1H-pyrazol-4-yl) pyrazolo [1,5-a] pyrimidin-5-amine] | 9.8 | 9.7 | 14.1 |  |
| CC(Nc1ccn2ncc(-c3cn[nH]c3)c2n1)c1cc(F)ccc1OC1CCCC1 (stereo not drawn) [Compound b13-39, N-(1-(2-(cyclopentyloxy)-5-fluorophenyl)ethyl)-3-(1H-pyrazol-4-yl) pyrazolo [1,5-a] pyrimidin-5-amine] | 5.9 | 7.9 | 8 |  |
| CC(Nc1ccn2ncc(-c3cn[nH]c3)c2n1)c1cc(F)ccc1OC1CCOC1 (stereo not drawn) [Compound b14-40, N-(1-(5-fluoro-2-((tetrahydrofuran-3-yl)oxy)phenyl)ethyl)-3-(1H-pyrazol-4-yl) pyrazolo [1,5-a] pyrimidin-5-amine] | 8.6 | 4.51 | 11.7 |  |
